Results as given in patent US20080051387A1, “TETRAHYDROPYRIDO[3,4-D]PYRIMIDINES AND RELATED ANALOGUES” (priority 2006, published 2008).

Each compound was assayed against T1, chimeric human H3 receptor (Homo sapiens, UniProt Q9Y5N1) (assay: Chimeric human H3 receptor screening GTP binding assay (inhibition of histamine-stimulated GTP-gamma35S binding, Example 8)). Settings: 1 h; assay described in Example 8; symbol "!" in column headed Ki; read-out: Ki ("!": percent inhibition of agonist-induced GTP-gammaS binding to H3).
T1 construct: rat Galpha-i2 (Gnai2, rat); made in house; host or cells: Sf9 insect cells (baculovirus); P2 membranes
T1 sequence (Q9Y5N1 with tags, fused parts or gaps): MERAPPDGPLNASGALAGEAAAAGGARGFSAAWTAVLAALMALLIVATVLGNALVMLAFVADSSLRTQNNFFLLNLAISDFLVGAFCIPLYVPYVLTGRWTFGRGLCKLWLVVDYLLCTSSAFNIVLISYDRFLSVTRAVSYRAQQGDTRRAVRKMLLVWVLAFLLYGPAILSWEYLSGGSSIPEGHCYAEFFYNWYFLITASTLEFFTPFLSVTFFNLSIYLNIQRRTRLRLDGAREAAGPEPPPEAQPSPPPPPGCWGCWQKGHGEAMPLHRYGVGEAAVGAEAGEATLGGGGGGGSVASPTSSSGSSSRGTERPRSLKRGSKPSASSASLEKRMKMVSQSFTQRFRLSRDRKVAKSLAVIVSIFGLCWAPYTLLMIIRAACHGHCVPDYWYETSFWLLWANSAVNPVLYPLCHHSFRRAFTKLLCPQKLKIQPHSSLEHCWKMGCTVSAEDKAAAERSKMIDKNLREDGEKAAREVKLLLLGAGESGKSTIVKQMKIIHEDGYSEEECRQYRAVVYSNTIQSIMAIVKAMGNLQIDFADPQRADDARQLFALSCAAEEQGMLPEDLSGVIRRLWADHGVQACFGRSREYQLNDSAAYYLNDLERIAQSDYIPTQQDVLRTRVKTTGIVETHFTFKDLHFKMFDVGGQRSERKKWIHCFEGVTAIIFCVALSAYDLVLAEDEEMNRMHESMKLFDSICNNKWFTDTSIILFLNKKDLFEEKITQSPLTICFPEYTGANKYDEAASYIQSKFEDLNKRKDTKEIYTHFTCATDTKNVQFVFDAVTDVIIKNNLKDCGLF
Type: biochemical
How it was run: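 Sf9 membranes co-expressing chimeric human H3 receptor and heterotrimeric G-protein (35 μg protein) incubated 60 min at room temperature with 4 μM compound, 1 μM histamine and 125 pM GTP-gamma35S in pH 7.4 buffer with 10 μM GDP. Filter-bound radioactivity, nonspecific (10 μM GTP-gammaS) subtracted, reported as % inhibition of histamine signal.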

Inhibition at 4 µM, ≥ 90%:
O=C(c1csc(-c2cccnc2)n1)N1CCc2cnc(N3CCN(C4CCC4)CC3)nc2CC1 [Compound 529, 2-(4-cyclobutylpiperazin-1-yl)-7-[(2-pyridin-3-yl-1,3-thiazol-4-yl)carbonyl]-6,7,8,9-tetrahydro-5H-pyrimido[4,5-d]azepine]
O=C(c1sccc1Br)N1CCc2cnc(N3CCN(C4CCC4)CC3)nc2CC1 [Compound 450, 7-[(3-bromo-2-thienyl)carbonyl]-2-(4-cyclobutylpiperazin-1-yl)-6,7,8,9-tetrahydro-5H-pyrimido[4,5-d]azepine]
COc1ccc(Br)c(OC)c1C(=O)N1CCc2cnc(N3CCN(C4CCC4)CC3)nc2CC1 [Compound 414, 7-(3-bromo-2,6-dimethoxybenzoyl)-2-(4-cyclobutylpiperazin-1-yl)-6,7,8,9-tetrahydro-5H-pyrimido[4,5-d]azepine]
Nc1ccccc1C(=O)N1CCc2cnc(N3CCN(C4CCC4)CC3)nc2CC1 [Compound 531, 2-{[2-(4-cyclobutylpiperazin-1-yl)-5,6,8,9-tetrahydro-7H-pyrimido[4,5-d]azepin-7-yl]carbonyl}aniline]
COc1cccc(/C=C/C(=O)N2CCc3cnc(N4CCN(C5CCC5)CC4)nc3CC2)c1OC [Compound 573, 2-(4-cyclobutylpiperazin-1-yl)-7-[(2E)-3-(2,3-dimethoxyphenyl)prop-2-enoyl]-6,7,8,9-tetrahydro-5H-pyrimido[4,5-d]azepine]
COc1cc(OC)c(OC)cc1/C=C/C(=O)N1CCc2cnc(N3CCN(C4CCC4)CC3)nc2CC1 [Compound 575, 2-(4-cyclobutylpiperazin-1-yl)-7-[(2E)-3-(2,4,5-trimethoxyphenyl)prop-2-enoyl]-6,7,8,9-tetrahydro-5H-pyrimido[4,5-d]azepine]
Cc1cc(C(=O)N2CCc3cnc(N4CCN(C5CCC5)CC4)nc3CC2)c(C)n1C [Compound 459, 2-(4-cyclobutylpiperazin-1-yl)-7-[(1,2,5-trimethyl-1H-pyrrol-3-yl)carbonyl]-6,7,8,9-tetrahydro-5H-pyrimido[4,5-d]azepine]
O=C(c1cccs1)N1CCc2cnc(N3CCN(C4CCC4)CC3)nc2CC1 [Compound 443, 2-(4-cyclobutylpiperazin-1-yl)-7-(2-thienylcarbonyl)-6,7,8,9-tetrahydro-5H-pyrimido[4,5-d]azepine]
CNc1ccccc1C(=O)N1CCc2cnc(N3CCN(C4CCC4)CC3)nc2CC1 [Compound 534, 2-{[2-(4-cyclobutylpiperazin-1-yl)-5,6,8,9-tetrahydro-7H-pyrimido[4,5-d]azepin-7-yl]carbonyl}-N-methylaniline]
O=C(c1cccc(C(F)(F)F)c1)N1CCc2cnc(N3CCN(C4CCC4)CC3)nc2CC1 [Compound 397, 2-(4-cyclobutylpiperazin-1-yl)-7-[3-(trifluoromethyl)benzoyl]-6,7,8,9-tetrahydro-5H-pyrimido[4,5-d]azepine]
COc1ccc(OC)c(C(=O)N2CCc3cnc(N4CCN(C5CCC5)CC4)nc3CC2)c1 [Compound 423, 2-(4-cyclobutylpiperazin-1-yl)-7-(2,5-dimethoxybenzoyl)-6,7,8,9-tetrahydro-5H-pyrimido[4,5-d]azepine]
O=C(c1ccc(Br)s1)N1CCc2cnc(N3CCN(C4CCC4)CC3)nc2CC1 [Compound 449, 7-[(5-bromo-2-thienyl)carbonyl]-2-(4-cyclobutylpiperazin-1-yl)-6,7,8,9-tetrahydro-5H-pyrimido[4,5-d]azepine]
CCCCn1c(C(=O)N2CCc3cnc(N4CCN(C5CCC5)CC4)nc3CC2)cc2ccccc21 [Compound 454, 7-[(1-butyl-1H-indol-2-yl)carbonyl]-2-(4-cyclobutylpiperazin-1-yl)-6,7,8,9-tetrahydro-5H-pyrimido[4,5-d]azepine]

Same assay, conditions: 1 h; assay of Example 8; symbol "!" in column headed Ki; read-out: percent inhibition of agonist-induced GTP-gammaS binding to H3

Inhibition at 4 µM, ≥ 90%:
Fc1cccc(CN2CCc3cnc(N4CCN(C5CCC5)CC4)nc3CC2)c1 [Compound 231, 2-(4-cyclobutylpiperazin-1-yl)-7-(3-fluorobenzyl)-6,7,8,9-tetrahydro-5H-pyrimido[4,5-d]azepine]
O=C(COc1cccc2ccccc12)N1CCc2cnc(N3CCN(C4CCC4)CC3)nc2CC1 [Compound 335, 2-(4-cyclobutylpiperazin-1-yl)-7-[(1-naphthyloxy)acetyl]-6,7,8,9-tetrahydro-5H-pyrimido[4,5-d]azepine]
O=C(Cc1cccc(Oc2ccccc2)c1)N1CCc2cnc(N3CCN(C4CCC4)CC3)nc2CC1 [Compound 282, 2-(4-cyclobutylpiperazin-1-yl)-7-[(3-phenoxyphenyl)acetyl]-6,7,8,9-tetrahydro-5H-pyrimido[4,5-d]azepine]
O=C(Cc1cc(Cl)ccc1Br)N1CCc2cnc(N3CCN(C4CCC4)CC3)nc2CC1 [Compound 301, 7-[(2-bromo-5-chlorophenyl)acetyl]-2-(4-cyclobutylpiperazin-1-yl)-6,7,8,9-tetrahydro-5H-pyrimido[4,5-d]azepine]
O=C(c1ccc2c(c1)OCO2)N1CCc2cnc(N3CCN(C4CCC4)CC3)nc2CC1 [Compound 377, 7-(1,3-benzodioxol-5-ylcarbonyl)-2-(4-cyclobutylpiperazin-1-yl)-6,7,8,9-tetrahydro-5H-pyrimido[4,5-d]azepine]
O=C(/C=C/c1ccc(Cl)cc1Cl)N1CCc2cnc(N3CCN(C4CCC4)CC3)nc2CC1 [Compound 581, 2-(4-cyclobutylpiperazin-1-yl)-7-[(2E)-3-(2,4-dichlorophenyl)prop-2-enoyl]-6,7,8,9-tetrahydro-5H-pyrimido[4,5-d]azepine]
Cc1cccc(OC(C)C(=O)N2CCc3cnc(N4CCN(C5CCC5)CC4)nc3CC2)c1C (stereo not drawn) [Compound 347, 2-(4-cyclobutylpiperazin-1-yl)-7-[2-(2,3-dimethylphenoxy)propanoyl]-6,7,8,9-tetrahydro-5H-pyrimido[4,5-d]azepine]
Cc1cccc(CN2CCc3cnc(N4CCN(C5CCC5)CC4)nc3CC2)c1 [Compound 233, 2-(4-cyclobutylpiperazin-1-yl)-7-(3-methylbenzyl)-6,7,8,9-tetrahydro-5H-pyrimido[4,5-d]azepine]
COc1ccc(OC)c(CC(=O)N2CCc3cnc(N4CCN(C5CCC5)CC4)nc3CC2)c1 [Compound 308, 2-(4-cyclobutylpiperazin-1-yl)-7-[(2,5-dimethoxyphenyl)acetyl]-6,7,8,9-tetrahydro-5H-pyrimido[4,5-d]azepine]
O=C(/C=C/c1ccc(F)cc1Cl)N1CCc2cnc(N3CCN(C4CCC4)CC3)nc2CC1 [Compound 584, 7-[(2E)-3-(2-chloro-4-fluorophenyl)prop-2-enoyl]-2-(4-cyclobutylpiperazin-1-yl)-6,7,8,9-tetrahydro-5H-pyrimido[4,5-d]azepine]
O=C(C1CCOC1)N1CCc2cnc(N3CCN(C4CCC4)CC3)nc2CC1 (stereo not drawn) [Compound 221, 2-(4-cyclobutylpiperazin-1-yl)-7-(tetrahydrofuran-3-ylcarbonyl)-6,7,8,9-tetrahydro-5H-pyrimido[4,5-d]azepine]
O=C(COc1ccccc1)N1CCc2cnc(N3CCN(C4CCC4)CC3)nc2CC1 [Compound 315, 2-(4-cyclobutylpiperazin-1-yl)-7-(phenoxyacetyl)-6,7,8,9-tetrahydro-5H-pyrimido[4,5-d]azepine]

Same assay, conditions: symbol ! in Ki; test compound 4 μM, 1 μM histamine; read-out: percent inhibition of agonist-induced GTP-gammaS binding to H3

Inhibition at 4 µM, ≥ 90%:
O=C(c1ccccc1)N1CCc2c(ncnc2N2CCN(C3CCC3)CC2)C1 [Compound 22, 7-benzoyl-4-(4-cyclobutylpiperazin-1-yl)-5,6,7,8-tetrahydropyrido[3,4-d]pyrimidine]
CC(C)CCN1CCc2ncnc(N3CCN(C4CCC4)CC3)c2CC1 [Compound 161, 4-(4-cyclobutylpiperazin-1-yl)-7-(3-methylbutyl)-6,7,8,9-tetrahydro-5H-pyrimido[4,5-d]azepine]
COc1ccc(OC)c(CN2CCc3ncnc(N4CCN(C5CCC5)CC4)c3CC2)c1 [Compound 176, 4-(4-cyclobutylpiperazin-1-yl)-7-(2,5-dimethoxybenzyl)-6,7,8,9-tetrahydro-5H-pyrimido[4,5-d]azepine]
COc1ccccc1CN1CCc2nc(N3CCN(C4CCC4)CC3)ncc2C1 [Compound 623, 2-(4-cyclobutylpiperazin-1-yl)-6-(2-methoxybenzyl)-5,6,7,8-tetrahydropyrido[4,3-d]pyrimidine]
CC(c1cnc2ccccc2c1)N1CCc2c(ncnc2N2CCN(C3CCC3)CC2)C1 (stereo not drawn) [Compound 109, 4-(4-cyclobutylpiperazin-1-yl)-7-(1-quinolin-3-ylethyl)-5,6,7,8-tetrahydropyrido[3,4-d]pyrimidine]
Clc1ccc(CN2CCc3nc(N4CCN(C5CCC5)CC4)ncc3C2)c(Cl)c1 [Compound 646, 2-(4-cyclobutylpiperazin-1-yl)-6-(2,4-dichlorobenzyl)-5,6,7,8-tetrahydropyrido[4,3-d]pyrimidine]
Clc1ccccc1CN1CCc2c(ncnc2N2CCN(C3CCC3)CC2)C1 [Compound 98, 7-(2-chlorobenzyl)-4-(4-cyclobutylpiperazin-1-yl)-5,6,7,8-tetrahydropyrido[3,4-d]pyrimidine]
CC(C)CC(=O)N1CCc2c(ncnc2N2CCN(C3CCC3)CC2)C1 [Compound 45, 4-(4-cyclobutylpiperazin-1-yl)-7-(3-methylbutanoyl)-5,6,7,8-tetrahydropyrido[3,4-d]pyrimidine]
